Data as given in patent publication US6767549B2, “Ionic polymers as anti-infective agents” (Genzyme Corporation, priority 1996, dated 2004).

Test system: C. parvum
Assay: In vitro activity against C. parvum infectivity in MDBK cell monolayers (indirect immunofluorescence assay)
Assay type: cell-based
Conditions: Cryptosporidium parvum, 2 mg/mL, positive control drug, 48 hours
Protocol: Confluent MDBK cell monolayers were grown on 16 well slides, and infected with 5×10^5 of C. parvum oocysts per well. Various dilutions of the test reagents in dimethylsulfoxide (DMSO) were added to the monolayers and cultures were incubated at 37° C.(8% CO2) for 48 hours. The level of C. parvum infections was determined and analysed by an indirect immunofluorescence (IF) assay at 48 hours. Anti-C. parvum sporozoite rabbit serum (1:1000) was used as the primary antibody, and fluorscein-conjugated anti rabbit goat serum (1:100) was used as the secondary antibody. Each dilution was tested in quadruple, and each assay was performed at least two times. The monolayers were methanol fixed and, after IF labelling, the number of parasites observed in 10 high power fields (HPF) per well in each of the four wells per dilution was counted, statistically analysed and compared with infected wells which contained DMSO only. Paromomycin was used as the positive control drug.

`NC[C@@H]1O[C@H](O[C@H]2[C@@H](O)[C@H](O[C@@H]3[C@@H](O)[C@H](N)C[C@H](N)[C@H]3O[C@H]3O[C@H](CO)[C@@H](O)[C@H](O)[C@H]3N)O[C@@H]2CO)[C@H](N)[C@@H](O)[C@@H]1O` [paromomycin] was tested, and the inhibition at 2000 µg/mL was 79.4%.
